“And” between values parts separate entries of the source, which are not always exact repeats. Equal entries are not always repeated. Inconclusive results and toxic doses are left out. Rule for the calls: active = survival T/C of 150% or more; inactive = T/C below 125% in these data.
Test system: P388 leukemia ip, CD2F1 mice, survival T/C
Experiment: NCI In Vivo Anticancer Drug Screen. Data for tumor model P388 Leukemia (intraperitoneal) in CD2F1 (CDF1) mice
Conditions: endpoint: median survival time, higher = longer survival
In short: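 Mice carrying the transplanted tumor received test compound or vehicle. Survival was recorded in each group, and the value is the treated-group measurement divided by that of the vehicle-treated control group.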

[1] = dose: 50.0 mg/kg/injection, schedule: Q01DX005 (ip), vehicle: Klucel (hydroxypropylcellulose) (HPC)
[2] = dose: 100.0 mg/kg/injection, schedule: Q01DX005 (ip), vehicle: Klucel (hydroxypropylcellulose) (HPC)
[3] = dose: 50.0 mg/kg/injection, schedule: Q01DX009 (ip), vehicle: saline
[4] = dose: 100.0 mg/kg/injection, schedule: Q01DX009 (ip), vehicle: saline
[5] = dose: 200.0 mg/kg/injection, schedule: Q01DX009 (ip), vehicle: saline
[6] = dose: 200.0 mg/kg/injection, schedule: Q01DX005 (ip), vehicle: Klucel (hydroxypropylcellulose) (HPC)
[7] = dose: 50.0 mg/kg/injection, schedule: Q01DX005 (ip), vehicle: saline with Tween-80
[8] = dose: 100.0 mg/kg/injection, schedule: Q01DX005 (ip), vehicle: saline with Tween-80
[9] = dose: 200.0 mg/kg/injection, schedule: Q01DX005 (ip), vehicle: saline with Tween-80
[10] = dose: 50.0 mg/kg/injection, schedule: Q01DX009 (ip), vehicle: Klucel (hydroxypropylcellulose) (HPC)
[11] = dose: 100.0 mg/kg/injection, schedule: Q01DX009 (ip), vehicle: Klucel (hydroxypropylcellulose) (HPC)
[12] = dose: 200.0 mg/kg/injection, schedule: Q01DX009 (ip), vehicle: Klucel (hydroxypropylcellulose) (HPC)
[13] = dose: 100.0 mg/kg/injection, schedule: Q01DX005 (ip), vehicle: saline
[14] = dose: 200.0 mg/kg/injection, schedule: Q01DX005 (ip), vehicle: saline

Measured: T/C

CCCCc1c(OS(=O)(=O)c2ccc(C)cc2)c(C#N)c2[nH]c3ccccc3n2c1=O
inactive: dose: 60.0 mg/kg/injection, schedule: Q01DX005 (ip), vehicle: saline with Tween-80 91 % of control | dose: 120.0 mg/kg/injection, schedule: Q01DX005 (ip), vehicle: saline with Tween-80 96 % of control | dose: 240.0 mg/kg/injection, schedule: Q01DX005 (ip), vehicle: saline with Tween-80 89 % of control

CN(C)C1C(=O)C(C(N)=O)=C(O)C2(O)C(=O)C3=C(O)c4c(O)cccc4C(C)(O)C3CC12 (stereo not given)
inactive: dose: 25.0 mg/kg/injection, schedule: Q01DX005 (ip), vehicle: Klucel (hydroxypropylcellulose) (HPC) 94 % of control | [1] 95 % of control | [2] 95 % of control

CC(N)S(=O)(=O)O (stereo not given)
inactive: [3] 104 % of control | [4] 98 % of control | [5] 104 % of control | dose: 400.0 mg/kg/injection, schedule: Q01DX009 (ip), vehicle: saline 88 % of control

S=C(Cl)Sc1ccc(-c2ccc(SC(=S)Cl)cc2)cc1
inactive: [1] 88 % of control | [2] 88 % of control | [6] 87 % of control

O=C1CN(Cc2ccc(Cl)cc2)CC(=O)N2Cc3ccccc3CN12
inactive: [7] 102 % of control | [8] 104 % of control | [9] 103 % of control

Cc1cc(=O)[nH]c2[nH][nH]c(=O)c12
inactive: dose: 25.0 mg/kg/injection, schedule: Q01DX009 (ip), vehicle: saline with Tween-80 93 % of control | dose: 50.0 mg/kg/injection, schedule: Q01DX009 (ip), vehicle: saline with Tween-80 93 % of control | dose: 100.0 mg/kg/injection, schedule: Q01DX009 (ip), vehicle: saline with Tween-80 105 % of control | dose: 200.0 mg/kg/injection, schedule: Q01DX009 (ip), vehicle: saline with Tween-80 90 % of control

COc1cc(CC2NCCc3cc(O)ccc32)cc(OC)c1OC (stereo not given)
inactive: [10] 103 % of control | [11] 99 % of control | [12] 102 % of control

NNS(=O)(=O)c1cc(C(=O)O)cc(C(=O)O)c1
inactive: dose: 100.0 mg/kg/injection, schedule: Q01DX001 (ip), vehicle: saline with Tween-80 109 % of control | dose: 200.0 mg/kg/injection, schedule: Q01DX001 (ip), vehicle: saline with Tween-80 100 % of control | dose: 400.0 mg/kg/injection, schedule: Q01DX001 (ip), vehicle: saline with Tween-80 90 % of control

Cc1ccc(S(=O)(=O)c2c(O)c3ccccc3c3nc4ccccc4nc23)cc1
inactive: dose: 12.5 mg/kg/injection, schedule: Q01DX009 (ip), vehicle: saline 90 % of control | dose: 12.5 mg/kg/injection, schedule: Q01DX009 (ip), vehicle: suspension in saline 88 % of control | dose: 25.0 mg/kg/injection, schedule: Q01DX009 (ip), vehicle: suspension in saline 90 % of control | [3] 89 % of control | dose: 50.0 mg/kg/injection, schedule: Q01DX009 (ip), vehicle: suspension in saline 88 % of control | [5] 91 % of control

Cc1cc(C)c2ccc(C)c(N)c2n1
inactive: [7] 99 % of control | [8] 92 % of control | [9] 99 % of control

C/C(=C\Cc1cc(O)cc(C)c1O)CC(=O)CC1(C)CCCC1(C)C(=O)/C=C/C(C)(C)O (stereo not given)
inactive: dose: 1.5 mg/kg/injection, schedule: Q01DX009 (ip), vehicle: saline with Tween-80 110 % of control | dose: 3.0 mg/kg/injection, schedule: Q01DX009 (ip), vehicle: saline with Tween-80 101 % of control | dose: 6.0 mg/kg/injection, schedule: Q01DX009 (ip), vehicle: saline with Tween-80 104 % of control | dose: 12.0 mg/kg/injection, schedule: Q01DX009 (ip), vehicle: saline with Tween-80 103 % of control

CNC1C(O)C(NC)C2OC3(O)C(=O)CC(C)OC3OC2C1O (stereo not given)
inactive: dose: 50.0 mg/kg/injection, schedule: Q04DX002 (ip), vehicle: saline with Tween-80 101 % of control | [13] 101 % of control | dose: 100.0 mg/kg/injection, schedule: Q04DX002 (ip), vehicle: saline with Tween-80 101 % of control | [14] 100 % of control | dose: 200.0 mg/kg/injection, schedule: Q04DX002 (ip), vehicle: saline with Tween-80 98 % of control

CC1(C)CC(=O)C(C(c2cccc([N+](=O)[O-])c2)C2C(=O)CC(C)(C)CC2=O)C(=O)C1
inactive: [1] 96 % of control | [2] 98 % of control | [6] 102 % of control

CC1CN(C(C)(C)C)CO1 (stereo not given)
inactive: dose: 12.5 mg/kg/injection, schedule: Q01DX005 (ip), vehicle: saline 112 % of control and 88 % of control | dose: 25.0 mg/kg/injection, schedule: Q01DX005 (ip), vehicle: saline 107 % of control | dose: 50.0 mg/kg/injection, schedule: Q01DX005 (ip), vehicle: saline 114 % of control and 117 % of control and 119 % of control | [13] 119 % of control and 120 % of control | [14] 107 % of control

CC(C)[c-]1[c-][c-][c-][c-]1.CC(C)[c-]1[c-][c-][c-][c-]1.[Cl][Zr][Cl]
inactive: dose: 3.12 mg/kg/injection, schedule: Q01DX009 (ip), vehicle: saline with Tween-80 112 % of control | dose: 6.25 mg/kg/injection, schedule: Q01DX009 (ip), vehicle: saline with Tween-80 119 % of control | dose: 12.5 mg/kg/injection, schedule: Q01DX009 (ip), vehicle: saline with Tween-80 117 % of control

Cc1ccc(N2CCN(CC(O)COc3cc4c(c5c3CCCC5)CCCC4)CC2)cc1C (stereo not given)
inactive: dose: 100.0 mg/kg/injection, schedule: Q04DX003 (ip), vehicle: Klucel (hydroxypropylcellulose) (HPC) 95 % of control | dose: 200.0 mg/kg/injection, schedule: Q04DX003 (ip), vehicle: Klucel (hydroxypropylcellulose) (HPC) 93 % of control | dose: 400.0 mg/kg/injection, schedule: Q04DX003 (ip), vehicle: Klucel (hydroxypropylcellulose) (HPC) 91 % of control

NC(CSCC(=O)O)C(=O)O (stereo not given)
inactive: dose: 25.0 mg/kg/injection, schedule: Q01DX009 (ip), vehicle: Klucel (hydroxypropylcellulose) (HPC) 95 % of control | [10] 111 % of control | [11] 105 % of control | [12] 98 % of control

OC(c1ccccc1)C(O)C(c1ccccc1)N1CCCCC1 (stereo not given)
inactive: [4] 92 % of control | [5] 92 % of control

CC12CC3(C)CC(C)(C1)CC(C(Cl)C(=O)NC(C)(C)C)(C2)C3 (stereo not given)
inactive: [10] 97 % of control | [11] 93 % of control | [12] 107 % of control

COc1cc(C2OCC3C(c4cc(OC)c(OC)c(OC)c4)OCC23)cc(OC)c1OC (stereo not given)
inactive: [1] 102 % of control | [2] 100 % of control | [6] 102 % of control
